Experimental findings from patent publication US5336759A, “Biologically active peptide derived from frog (frog CNP)” (priority 1990, dated 1994) are described below.

The test system of assay [1] is chicken rectum. As to the method: Relaxant activity in chicken rectum was measured in accordance with the method of […] and Currie ([…]. and Matsuo, H., Biochem. Biophys. Res. Commun., 118, 131-139, 1984; Currie, […]., Cole, […]. and Needleman, P. Science, 221, 71-73, 1983). The values are averages of six repeats. […] Although fCNP lacked the tail sequence at the C-terminal which had been considered to be important for analog peptides in displaying biological activities such as diuretic action (Watanabe, T. X., Noda, Y., Chino […]. and Imai, M. Eur. J. […] Relative activity is defined as the activity of equimolar amount of peptides when the activity of α-hANP is 100.

The test system of assay [2] is anesthetized rats. As to the kind of experiment: Diuretic and natriuretic action in anesthetized rats. It counts as in vivo, rat. The conditions noted are these: for excretion Cl- / excretion K+ / excretion Na+ / excretion urine: urine collected 15 min before and after injection, Means±S.E.M., three rats. As to the method: (§1) Diuretic action of fCNP was measured in accordance with the method described in Kangawa et al and Sudoh et al (Kangawa, K. et al., Biochem. Biophys. Res. Commun., 118, 131-139, 1984; Sudoh, T., Kangawa, K., Minamino, N. and Matsuo, H. Nature, 332, 78-81 , 1988). Male SD rats (weight 300-400 g) were anesthetized by intraperitoneally receiving 50 mg/kg pentobarbital, and a tracheal cannula (PE-240, Cray Adams) was provided to secure an airway. A cannula for measuring the blood pressure (PE-50) was inserted into one of the femoral arteries, and Ringer solution was injected through a cannula (PE-10) inserted into the femoral venous, at a constant rate of 1.8 ml/hr. Urine was collected into a test tube through a bladder cannula of silastic tube (inside diameter 0.02 inch, outside diameter 0.037 inch, Dow Corning). The collection of urine was carried out for 15 min before the administration of the peptides, at 5 min intervals after the administration till 15 min, and then at appropriate time intervals. The effect of the peptides was measured by comparing the amount of the urine samples and the concentration of the electrolyte in the urine samples, as well as by the change of the blood pressure.
In the above assay, a predetermined amount of fCNP was dissolved in 0.1N acetic acid, and neutralized with one tenth volume of 1.3M Tris solution. Then, the solution was diluted with 50 μl of a sterile physiological water, and administered through the cervical vein.
In Table 3, diuretic and natriuretic responses are shown in terms of the amount of the urine, the percentages in the decreases of the excretion of Na^+, K^+ and Cl^- (Means±S.E.M.), in which urine samples were collected separately over 15 min before and after the intravenous injection of the peptides to anesthetized rats. Three rats were used for each peptide.

Assay [3] concerns anesthetized rats. As to the kind of experiment: Vasodepressor action (blood pressure) in anesthetized rats. It counts as in vivo, rat. Further details: decrease of blood pressure at the contract phase of heart: unit not given here. As to the method: as §1, with “Kangawa” left out, “([…].” for “(Kangawa, K.”, “[…].,” for “T., Kangawa, K.,”, “pressure. In the above assay, a predetermined amount of fCNP was dissolved in 0.1N acetic acid, and neutralized with one tenth volume of 1.3M Tris solution. […]” for “pressure.”

The mark [4] stands for this setting: relaxant activity of equimolar amount of peptide, activity of α-hANP = 100, averages of six repeats.

Like-named read-outs stand apart in the source and are kept apart here. Bridge positions count the residues as written; N and C are the ends. Ends that are not written are not given here. Peptide text beside a SMILES is read from it.

Turning to `CC[C@H](C)[C@@H]1NC(=O)[C@H](CCCNC(=N)N)NC(=O)[C@H](CC(=O)O)NC(=O)[C@H](CC(C)C)NC(=O)[C@H](CCCCN)NC(=O)[C@H](C(C)C)NC(=O)CNC(=O)[C@H](Cc2ccccc2)NC(=O)[C@@H](NC(=O)CNC(=O)[C@H](CCCNC(=N)N)NC(=O)[C@H](CO)NC(=O)[C@H](Cc2ccc(O)cc2)NC(=O)CN)CSSC[C@@H](C(=O)O)NC(=O)CNC(=O)[C@H](CC(C)C)NC(=O)CNC(=O)[C@H](CO)NC(=O)[C@H](Cc2ccccc2)NC(=O)[C@H](C)NC(=O)CNC1=O` [fCNP] (H-GYSRGCFGVKLDRIGAFSGLGC-OH; disulfide 6-22), in assay [1], the relative activity is reported as 321 and the “relaxant activity in chicken rectum (in words)” value is on record as “strong relaxant activity which was comparable to pCNP”. The “relaxant activity in chicken rectum (in words)” value in assay [1] (listed as synthetic fCNP) was “positive relaxant activity”. Also, the “relaxant activity, times higher than fANP-21” value in assay [1] (relative to fANP-21) is recorded as about 7 times. In addition, the “relaxant activity, times higher than α-hANP” value in assay [1] (relative to α-hANP) is on record as “about 3 times”. For the same molecule, in assay [2] (30 μg/kg intravenous), the “excretion Cl-” value turned out to be 193 ± 50%, the “excretion K+” value is 163 ± 54%, the “excretion Na+” value is recorded as 184 ± 26% and the excretion urine came out at 192 ± 51%. In assay [2] (100 μg/kg intravenous), the “excretion Cl-” value is given as 251 ± 43%, the “excretion K+” value is given as 217 ± 58%, the “excretion Na+” value amounted to 344 ± 36% and the excretion urine stood at 315 ± 24%. In assay [2] (300 μg/kg intravenous), the “excretion Cl-” value is 369 ± 6%, the “excretion K+” value is listed as 210 ± 33%, the “excretion Na+” value is on record as 428 ± 29% and the excretion urine stood at 410 ± 27%. Also, the “diuretic and natriuretic actions compared to that of α-hANP” value in assay [2] (ratio to α-hANP, anesthetized rats) is reported as “about 1/100”. Also, the “decrease of blood pressure at the contract phase of heart” value in assay [3] (10 nmol of fCNP, over a period of 30 min, typical experiment) was 25-30. The “vasodepressor action (in words)” value in assay [3] (anesthetized rats) is on record as “weak vasodepressor action”.

In assay [1] (setting [4]), “α-hANP: A-type (atrial) natriuretic peptide used as reference, activity set to 100 (SLRRSSCFGGRMDRIGAQSGLGCNSFRY; ends and bridges not checked; cysteine pairing not given here; UniProt P01160 124-151, looked up) [reference compound]” registered a relative activity of 100. Besides, in assay [2] (3.0 μg/kg intravenous), the “excretion Cl-” value came out at 445 ± 67%, the “excretion K+” value was 291 ± 19%, the “excretion Na+” value turned out to be 572 ± 84% and the excretion urine is 461 ± 51%.

As to “pBNP-26: diuretic peptide; B-type (brain) natriuretic peptide (DSGCFGRRLDRIGSLSGLGCNVLRRY; ends and bridges not checked; cysteine pairing not given here; UniProt P07634 106-131, looked up) [reference compound]”, the relative activity in assay [1] (setting [4]) is 270.
